Laboratory results from paper PMC7732027 (Bioorganic & medicinal chemistry letters, 2019).

Tested on: influenza A virus PR8-GLuc (H1N1) strain
Assay type: cell-based

| SMILES | decrease of potency versus Pimodivir [times] |
| --- | --- |
| Cl.O=C(O)[C@H]1C2CCC(C3CC32)[C@@H]1Nc1nc(-c2c[nH]c3ncc(F)cc23)ncc1F (some centres unmarked) [13b] | 12 |
| Cl.O=C(O)C12CC3CC(CC(Nc4nc(-c5c[nH]c6ncc(F)cc56)ncc4F)(C3)C1)C2 [13d] | 230 |
